Results: EP0343830A2, “Ring-substituted 2-amino-1,2,3,4-tetrahydronaphthalenes” (ELI LILLY AND COMPANY, priority 1988, dated 1989)
Where a name gives a salt, the structure may show the parent alone.

These compounds were tested against T1, 5HT UPTAKE (Rattus norvegicus, UniProt P31652) (assay: Inhibition of synaptosomal uptake of 3H-serotonin (3H-5HT) in vitro, rat cerebral cortex synaptosomes). Conditions: concentration needed to inhibit the uptake of 3H-5HT by 50%; rat cortical synaptosomes, 37°C, 5 min, 50 nM 3H-5HT.
T1 construct: Crude synaptosomal preparations were isolated after differential centrifugation; from tissue; host or cells: rat cerebral cortex, crude synaptosomes
T1 sequence (P31652 whole entry): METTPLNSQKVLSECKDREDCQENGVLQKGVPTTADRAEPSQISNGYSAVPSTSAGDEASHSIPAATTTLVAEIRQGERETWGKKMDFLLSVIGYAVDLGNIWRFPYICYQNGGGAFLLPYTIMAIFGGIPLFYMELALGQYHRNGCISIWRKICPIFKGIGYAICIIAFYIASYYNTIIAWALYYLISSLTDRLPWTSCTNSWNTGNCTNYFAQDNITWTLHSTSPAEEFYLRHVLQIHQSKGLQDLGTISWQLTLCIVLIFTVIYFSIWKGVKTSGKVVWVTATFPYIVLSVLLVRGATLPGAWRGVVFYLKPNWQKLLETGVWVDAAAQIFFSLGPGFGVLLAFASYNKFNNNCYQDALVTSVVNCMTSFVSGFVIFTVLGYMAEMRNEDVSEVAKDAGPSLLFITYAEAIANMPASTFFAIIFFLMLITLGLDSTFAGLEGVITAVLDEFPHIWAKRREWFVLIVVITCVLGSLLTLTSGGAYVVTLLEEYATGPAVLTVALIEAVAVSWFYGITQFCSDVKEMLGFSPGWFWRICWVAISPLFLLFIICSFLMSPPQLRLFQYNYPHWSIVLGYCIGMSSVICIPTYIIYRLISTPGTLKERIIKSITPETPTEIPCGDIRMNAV
Format: biochemical, Sprague-Dawley rats
Protocol: This general procedure is set forth in Wong et al., Drug Development Research 6:397-403 (1985).
Male Sprague-Dawley rats (110-150 g) from Harlan Industries (Cumberland, IN) were fed Purina Chow ad libitum for at least 3 days before being used in the studies. Rats were killed by decaptiation. Whole brains were removed and dissected. Cerebral cortex was homogenized in 9 volumes of a medium containing 0.32 M sucrose and 10 mM glucose. Crude synaptosomal preparations were isolated after differential centrifugation at 1,000 g for 10 min. and 17,000 g for 28 min. The final pellets were suspended in the same medium and kept in ice until use within the same day.
Synaptosomal uptake of ³H-serotonin (³H-5-hydroxytryptamine, ³H-5HT) was determined as follows: Cortical synaptosomes (equivalent to 1 mg of protein) were incubated at 37°C for 5 min in 1 ml of Krebs-bicarbonate medium containing also 10 mM glucose, […], 1 mM ascorbic acid, 0.17 mM EDTA and 50 nM ³H-5HT. The reaction mixture was immediately diluted with 2 ml of ice-chilled Krebs-bicarbonate buffer and filtered under vacuum with a cell harvester (Brandel, Gaithersburg, MD). Filters were rinsed twice with approximately 5 ml of ice-chilled 0.9% saline and were transferred to a counting vial containing 10 ml of scintillation fluid (PCS, Amersham, Arlington Heights, IL). Radioactivity was measured by a liquid scintillation spectrophotometer. Accumulation of ³H-5HT at 4°C represented the background and was subtracted from all samples.
The results of the evaluation of various compounds of the present invention are set forth below in Table I. In Table I, the first column provides the Example Number of the compound evaluated; the next 7 columns identify the structure of the compound evaluated when taken with the formula set forth in the heading; the next-succeeding column identifies the salt form of the compound evaluated; and the final column provides the amount of the test compound expressed in nanomolar concentration needed to inhibit the uptake of ³H-5HT by 50%, and is indicated in Table I as IC₅₀. Numbers in parentheses, if any, represent percent inhibition at 1000 nM.
C[C@@H]1c2ccc(Cl)cc2CC[C@@H]1N1CCNCC1 (racemic) [Example 33, cis-1-Methyl-2-piperazinyl-6-chloro-1,2,3,4-tetrahydronaphthalene dihydrochloride] gave an IC50 of 12 nM. COc1ccc(Br)c2c1C(C)C(N1CCNCC1)CC2 (single isomer, unassigned) [Example 19, 1-Methyl-2-piperazinyl-5-bromo-8-methoxy-1,2,3,4-tetrahydronaphthalene dihydrochloride] showed an IC50 of 70 nM. Compound C[C@@H]1c2ccc(Cl)cc2CC[C@@H]1N1CCNCC1 (single isomer, unassigned; (+)) [Example 33a, (+)cis-1-Methyl-2-piperazinyl-6-chloro-1,2,3,4-tetrahydronaphthalene dihydrochloride dihydrate] has an IC50 of 84 nM. Compound C[C@@H]1c2ccc(Cl)cc2CC[C@@H]1N1CCNCC1 (single isomer, unassigned; (-)) [Example 33b, (-)cis-1-Methyl-2-piperazinyl-6-chloro-1,2,3,4-tetrahydronaphthalene dihydrochloride dihydrate] has an IC50 of 8.2 nM. COc1cccc2c1CC(N1CCN(C)CC1)CC2 (stereo not shown) [Example 1, 2-(Methylpiperazinyl)-8-methoxy-1,2,3,4-tetrahydronaphthalene dihydrochloride] showed an IC50 of 57 nM. With COc1cccc2c1CC(N1CCNCC1)CC2 (stereo not shown) [Example 2, 2-Piperazinyl-8-methoxy-1,2,3,4-tetrahydronaphthalene dihydrochloride] the IC50 was 90 nM. Clc1cccc2c1CC(N1CCNCC1)CC2 (stereo not shown) [Example 3, 2-Piperazinyl-8-chloro-1,2,3,4-tetrahydronaphthalene dimaleate] showed an IC50 of 83 nM. For CN1CCN(C2CCc3cccc(Cl)c3C2)CC1 (stereo not shown) [Example 4, 2-(N-methylpiperazinyl)-8-chloro-1,2,3,4-tetrahydronaphthalene dimaleate], the IC50 was 35 nM. Work on Clc1cccc2c1CC(N1CCCNCC1)CC2 (stereo not shown) [Example 5, 2-(Homopiperazinyl)-8-chloro-1,2,3,4-tetrahydronaphthalene dimaleate] yielded an IC50 of 260 nM. Work on CN1CCN(C2CCc3cccc(F)c3C2)CC1 (stereo not shown) [Example 6, 2-(N-methylpiperazinyl)-8-fluoro-1,2,3,4-tetrahydronaphthalene dimaleate] yielded an IC50 of 180 nM. Compound Cc1cccc2c1CC(N1CCN(C)CC1)CC2 (stereo not shown) [Example 7, 2-(N-Methylpiperazinyl)-8-methyl-1,2,3,4-tetrahydronaphthalene dihydrochloride] has an IC50 of 87 nM. With Cc1ccc(C)c2c1CCC(N1CCN(C)CC1)C2 (stereo not shown) [Example 8, 2-(N-Methylpiperazinyl)-5,8-dimethyl-1,2,3,4-tetrahydronaphthalene dimaleate] the IC50 was 140 nM. Work on CN1CCN(C2CCc3cccc(Br)c3C2)CC1 (stereo not shown) [Example 9, 2-(N-Methylpiperazinyl)-8-bromo-1,2,3,4-tetrahydronaphthalene dimaleate] yielded an IC50 of 90 nM. Work on COc1ccc(OC)c2c1CCC(N1CCN(C)CC1)C2 (stereo not shown) [Example 10, 2-(N-methylpiperazinyl)-5,8-dimethoxy-1,2,3,4-tetrahydronaphthalene dihydrochloride] yielded an IC50 of 100 nM. CC1c2c(Cl)cccc2CCC1N1CCN(C)CC1 (stereo not shown) [Example 11, 1-Methyl-2-(N-methylpiperazinyl)-8-chloro-1,2,3,4-tetrahydronaphthalene dimaleate] was tested, and the IC50 was 650 nM. CC1c2c(Cl)cccc2CCC1N1CCNCC1 (stereo not shown) [Example 12, 1-Methyl-2-piperazinyl-8-chloro-1,2,3,4-tetrahydronaphthalene dihydrochloride] showed an IC50 of 270 nM. With CN1CCN(C2CCc3cccc(O)c3C2)CC1 (stereo not shown) [Example 14, 2-(N-Methylpiperazinyl)-8-hydroxy-1,2,3,4-tetrahydronaphthalene dihydrobromide] the IC50 was 50 nM. COc1ccc(Br)c2c1CC(N1CCN(C)CC1)CC2 (stereo not shown) [Example 15, 2-(N-Methylpiperazinyl)-5-bromo-8-methoxy-1,2,3,4-tetrahydronaphthalene dihydrochloride] was tested, and the IC50 was 12 nM. In the case of COc1ccc(Br)c2c1CC(N1CCNCC1)CC2 (stereo not shown) [Example 16, 2-Piperazinyl-5-bromo-8-methoxy-1,2,3,4-tetrahydronaphthalene dihydrochloride], the IC50 is reported as 3.7 nM. In the case of Cc1ccc(Br)c2c1CC(N1CCN(C)CC1)CC2 (stereo not shown) [Example 17, 2-(N-methylpiperazinyl)-5-bromo-8-methyl-1,2,3,4-tetrahydronaphthalene dihydrochloride], the IC50 is reported as 17 nM. With CSc1cccc2c1CC(N1CCN(C)CC1)CC2 (stereo not shown) [Example 18, 2-(N-methylpiperazinyl)-8-methylthio-1,2,3,4-tetrahydronaphthalene dimaleate] the IC50 was 40 nM. For COc1ccc(Cl)c2c1CC(N1CCN(C)CC1)CC2 (stereo not shown) [Example 21, 2-(N-methylpiperazinyl)-5-chloro-8-methoxy-1,2,3,4-tetrahydronaphthalene dihydrochloride], the IC50 was 16 nM. In the case of COc1ccc(I)c2c1CC(N1CCN(C)CC1)CC2 (stereo not shown) [Example 22, 2-(N-methylpiperazinyl)-5-iodo-8-methoxy-1,2,3,4-tetrahydronaphthalene dihydrochloride], the IC50 is reported as 23 nM. In the case of COc1ccc(C=O)c2c1CC(N1CCN(C)CC1)CC2 (stereo not shown) [Example 23, 2-(N-methylpiperazinyl)-5-formyl-8-methoxy-1,2,3,4-tetrahydronaphthalene dihydrochloride hydrate], the IC50 is reported as 10 nM. For COc1ccc(C#N)c2c1CC(N1CCN(C)CC1)CC2 (stereo not shown) [Example 24, 2-(N-methylpiperazinyl)-5-cyano-8-methoxy-1,2,3,4-tetrahydronaphthalene dihydrochloride], the IC50 was 12 nM. For Clc1ccc2c(c1)CCC(N1CCNCC1)C2 (stereo not shown) [Example 25, 2-Piperazinyl-6-chloro-1,2,3,4-tetrahydronaphthalene dihydrochloride], the IC50 was 100 nM. Brc1ccc2c(c1)CCC(N1CCNCC1)C2 (stereo not shown) [Example 26, 2-Piperazinyl-6-bromo-1,2,3,4-tetrahydronaphthalene dihydrochloride] showed an IC50 of 350 nM. With Fc1ccc2c(c1)CCC(N1CCNCC1)C2 (stereo not shown) [Example 27, 2-Piperazinyl-6-fluoro-1,2,3,4-tetrahydronaphthalene dihydrochloride] the IC50 was 340 nM. For Cc1ccc2c(c1)CCC(N1CCNCC1)C2 (stereo not shown) [Example 28, 2-Piperazinyl-6-methyl-1,2,3,4-tetrahydronaphthalene dihydrochloride], the IC50 was 210 nM. COc1ccc2c(c1)CCC(N1CCNCC1)C2 (stereo not shown) [Example 29, 2-Piperazinyl-6-methoxy-1,2,3,4-tetrahydronaphthalene dihydrochloride] showed an IC50 of 750 nM. In the case of Clc1cc2c(cc1Cl)CC(N1CCNCC1)CC2 (stereo not shown) [Example 30, 2-Piperazinyl-6,7-dichloro-1,2,3,4-tetrahydronaphthalene dihydrochloride], the IC50 is reported as 115 nM. CN1CCN(C2CCc3cc(Br)ccc3C2)CC1 (stereo not shown) [Example 31, 2-(N-Methylpiperazinyl)-6-bromo-1,2,3,4-tetrahydronaphthalene dihydrochloride] gave an IC50 of 520 nM. Compound CN1CCN(C2CCc3cc(Cl)ccc3C2)CC1 (stereo not shown) [Example 32, 2-(N-Methylpiperazinyl)-6-chloro-1,2,3,4-tetrahydronaphthalene dihydrochloride] has an IC50 of 450 nM. CC1c2ccccc2CCC1N1CCNCC1 (stereo not shown) [Example 34, 1-Methyl-2-piperazinyl-1,2,3,4-tetrahydronaphthalene dihydrochloride] was tested, and the IC50 was 59 nM. Work on CC1c2ccccc2CCC1N1CCN(C)CC1 (stereo not shown) [Example 35, 1-Methyl-2-(N-methylpiperazinyl-1,2,3,4-tetrahydronaphthalenedihydrochloride] yielded an IC50 of 490 nM. Clc1ccc2c(c1)CCC(N1CCCNCC1)C2 (stereo not shown) [Example 36, 2-Homopiperazinyl-6-chloro-1,2,3,4-tetrahydronaphthalene dihydrochloride] showed an IC50 of 240 nM. In the case of Oc1ccc2c(c1)CCC(N1CCNCC1)C2 (stereo not shown) [Example 37, 2-Piperazinyl-6-hydroxy-1,2,3,4-tetrahydronaphthalene dihydrobromide], the IC50 is reported as 1000 nM. Work on COc1ccc(C(F)F)c2c1CC(N1CCN(C)CC1)CC2 (stereo not shown) [Example 38, 2-(N-Methylpiperazinyl)-5-difluoromethyl-8-methoxy-1,2,3,4-tetrahydronaphthalene dimaleate] yielded an IC50 of 23 nM. CSc1ccc2c(c1)CCC(N1CCN(C)CC1)C2 (stereo not shown) [Example 39, 2-(N-Methylpiperizinyl)-6-methylthio-1,2,3,4-tetrahydronaphthalene dihydrochloride] was tested, and the IC50 was 434 nM. CC1c2ccc(Br)cc2CCC1N1CCNCC1 (stereo not shown) [Example 40, 1-Methyl-2-piperazinyl-6-bromo-1,2,3,4-tetrahydronaphthalene dihydrochloride] gave an IC50 of 34 nM.
